Test results as given in ChEMBL document CHEMBL4373717, “Coumarin-containing hybrids and their anticancer activities” (Eur J Med Chem, 2019).
In brackets after ≈: the same amount, converted by molar mass.

Assays:
Format in all cases: functional, cell-based
HeLa [1] = assay: Cytotoxicity against human HeLa cells assessed as reduction in cell viability after 68 hrs by MTT assay
MCF7 [2] = assay: Cytotoxicity against human MCF7 cells assessed as reduction in cell viability after 68 hrs by MTT assay; conditions: MCF7, 68 h
A549 [3] = assay: Cytotoxicity against human A549 cells assessed as reduction in cell viability after 68 hrs by MTT assay; conditions: A549, 68 h
K562 [4] = assay: Cytotoxicity against human K562 cells assessed as reduction in cell viability after 68 hrs by MTT assay; conditions: K562, 68 h
MDA-MB-231 [5] = assay: Cytotoxicity against human MDA-MB-231 cells assessed as reduction in cell viability after 24 hrs by MTT assay
A549 [6] = assay: Cytotoxicity against human A549 cells assessed as reduction in cell viability after 24 hrs by MTT assay; conditions: A549, 24 h
K562 [7] = assay: Anticancer activity against human K562 cells by MTT assay
A549 [8] = assay: Anticancer activity against human A549 cells by MTT assay
MDA-MB-231 [9] = assay: Anticancer activity against human MDA-MB-231 cells by MTT assay
HeLa [10] = assay: Anticancer activity against human HeLa cells by MTT assay
MCF7 [11] = assay: Cytotoxicity against human MCF7 cells assessed as reduction in cell viability after 48 hrs by MTT assay; conditions: MCF7, 48 h
HepG2 = assay: Anticancer activity against human HepG2 cells by MTT assay
769-P = assay: Anticancer activity against human 769-P cells by MTT assay

## Cc1c(Cc2ccc(NC(=O)Nc3ccc(F)c(Cl)c3)nc2)c(=O)oc2cc(O)c(C(C)(C)C)cc12
HeLa [1]
  IC50: 1660 to 19400 nM
MCF7 [2]
  IC50: 1660 to 19400 nM
A549 [3]
  IC50: 1660 to 19400 nM
K562 [4]
  IC50: 1660 to 19400 nM

## Cc1cccc(-c2cc(-c3cc4ccccc4oc3=O)nc(Cc3ccc(F)cc3)n2)c1
MDA-MB-231 [5]; Homo sapiens, MDA-MB-231, 24 h
  IC50: 2150 to 28600 nM
A549 [6]
  IC50: 2150 to 28600 nM

## Cc1nn(-c2ccccc2)c(=O)n1-n1c(-c2cc3ccccc3oc2=O)cs/c1=N\c1ccccc1
K562 [7]
  IC50: 0.16 to 1.12 µg/mL (≈ 0.324 to 2.27 µM)
A549 [8]
  IC50: 0.16 to 1.12 µg/mL
MDA-MB-231 [9]
  IC50: 0.16 to 1.12 µg/mL
HeLa [10]
  IC50: 0.16 to 1.12 µg/mL (≈ 0.324 to 2.27 µM)

## Cc1ccc(NC(=O)Nc2ccc(Cc3c(C)c4cc(C(C)(C)C)c(O)cc4oc3=O)cn2)cc1C
HeLa [1]
  IC50: 1660 to 19400 nM
MCF7 [2]
  IC50: 1660 to 19400 nM
A549 [3]
  IC50: 1660 to 19400 nM
K562 [4]
  IC50: 1660 to 19400 nM

## COc1ccc(NC(=O)c2ccc(-n3cc(COc4cc(=O)oc5ccccc45)nn3)cc2)cc1
MDA-MB-231 [5]; mda-mb-231
  IC50: 30 to 91600 nM

## CCOc1cc(Br)cc2c1OCC([N+](=O)[O-])=C2
HeLa [1]
  IC50: 950 to 6430 nM
MCF7 [2]
  IC50: 950 to 6430 nM
A549 [3]
  IC50: 950 to 6430 nM
K562 [4]
  IC50: 950 to 6430 nM

## Cc1cc(-c2cc3cc(Cl)ccc3oc2=O)n(-c2nc(-c3ccccc3)cs2)n1
MCF7 [11]
  IC50: 4.03 to 31.5 µM

## Cc1ccc2c(C3C4=C(CCCC4=O)OC3c3cc(=O)oc4ccc(C)cc34)cc(=O)oc2c1 (stereo not drawn)
A549 [8]
  IC50: 420 to 430 nM

## O=c1oc2ccccc2cc1-c1cc(-c2ccccc2Br)nc(Cc2ccc(F)cc2)n1
MDA-MB-231 [5]; Homo sapiens, MDA-MB-231, 24 h
  IC50: 2150 to 28600 nM
A549 [6]
  IC50: 2150 to 28600 nM

## COc1ccc(OC)c(NC(=O)Nc2ccc(Cc3c(C)c4cc(C(C)(C)C)c(O)cc4oc3=O)cn2)c1
HeLa [1]
  IC50: 1660 to 19400 nM
MCF7 [2]
  IC50: 1660 to 19400 nM
A549 [3]
  IC50: 1660 to 19400 nM
K562 [4]
  IC50: 1660 to 19400 nM

## O=c1ccc2ccc(OCCCCCCCCCCn3cc(COc4ccc5ccc(=O)oc5c4)nn3)cc2o1
HepG2
  IC50: 0.383 to 13.6 µM
769-P
  IC50: 0.383 to 13.6 µM
MDA-MB-231 [9]
  IC50: 0.383 to 13.6 µM

## Cc1ccccc1-c1cc(-c2cc3ccccc3oc2=O)nc(Cc2ccc(F)cc2)n1
MDA-MB-231 [5]; Homo sapiens, MDA-MB-231, 24 h
  IC50: 2150 to 28600 nM
A549 [6]
  IC50: 2150 to 28600 nM

## Cc1cc(-c2cc3cc(Br)ccc3oc2=O)n(-c2nc(-c3ccc(Br)cc3)cs2)n1
MCF7 [11]
  IC50: 4.03 to 31.5 µM

## O=c1ccc2ccc(OCCCCn3cc(COc4ccc5ccc(=O)oc5c4)nn3)cc2o1
HepG2
  IC50: 0.383 to 13.6 µM
769-P
  IC50: 0.383 to 13.6 µM
MDA-MB-231 [9]
  IC50: 0.383 to 13.6 µM

## Cc1cc(=O)oc2cc(OCc3cn(CCCOc4ccc5ccc(=O)oc5c4)nn3)ccc12
HepG2
  IC50: 0.383 to 13.6 µM
769-P
  IC50: 0.383 to 13.6 µM
MDA-MB-231 [9]
  IC50: 0.383 to 13.6 µM

## O=C(Nc1ccccc1)c1ccc(-n2cc(COc3cc(=O)oc4ccccc34)nn2)cc1
MDA-MB-231 [5]; mda-mb-231
  IC50: 30 to 91600 nM

## O=c1ccc2ccc(OCCCn3cc(COc4ccc5ccc(=O)oc5c4)nn3)cc2o1
HepG2
  IC50: 0.383 to 13.6 µM
769-P
  IC50: 0.383 to 13.6 µM
MDA-MB-231 [9]
  IC50: 0.383 to 13.6 µM

## COc1ccc(-c2cc(-c3cc4ccccc4oc3=O)nc(Cc3ccc(F)cc3)n2)cc1
MDA-MB-231 [5]; Homo sapiens, MDA-MB-231, 24 h
  IC50: 2230 nM
A549 [6]
  IC50: 2230 nM

## COc1ccccc1-c1cc(-c2cc3ccccc3oc2=O)nc(Cc2ccc(F)cc2)n1
MDA-MB-231 [5]; Homo sapiens, MDA-MB-231, 24 h
  IC50: 2150 to 28600 nM
A549 [6]
  IC50: 2150 to 28600 nM

## Cc1ccc2oc(=O)cc(C3OC4=C(C(=O)CCC4)C3c3cc(=O)oc4ccc(C)cc34)c2c1 (stereo not drawn)
A549 [8]
  IC50: 420 to 430 nM

## COc1ccc(/N=c2\scc(-c3cc4ccccc4oc3=O)n2-n2c(C)nn(-c3ccc(Br)cc3)c2=O)cc1
K562 [7]
  IC50: 0.16 to 1.12 µg/mL (≈ 0.266 to 1.86 µM)
A549 [8]
  IC50: 0.16 to 1.12 µg/mL
MDA-MB-231 [9]
  IC50: 0.16 to 1.12 µg/mL
HeLa [10]
  IC50: 0.16 to 1.12 µg/mL (≈ 0.266 to 1.86 µM)

## O=C(Nc1ccc(F)c(Cl)c1)c1ccc(-n2cc(COc3cc(=O)oc4ccccc34)nn2)cc1
MDA-MB-231 [5]; mda-mb-231
  IC50: 30 to 91600 nM

## O=c1ccc2ccc(OCCCCCCn3cc(COc4ccc5ccc(=O)oc5c4)nn3)cc2o1
HepG2
  IC50: 0.383 to 13.6 µM
769-P
  IC50: 0.383 to 13.6 µM
MDA-MB-231 [9]
  IC50: 0.383 to 13.6 µM

## Cc1nn(-c2ccc(Br)cc2)c(=O)n1-n1c(-c2cc3ccccc3oc2=O)cs/c1=N\c1ccc(Cl)cc1
K562 [7]
  IC50: 0.16 to 1.12 µg/mL (≈ 0.264 to 1.85 µM)
A549 [8]
  IC50: 0.16 to 1.12 µg/mL
MDA-MB-231 [9]
  IC50: 0.16 to 1.12 µg/mL
HeLa [10]
  IC50: 0.16 to 1.12 µg/mL (≈ 0.264 to 1.85 µM)

## COc1ccc(/N=c2\scc(-c3cc4ccccc4oc3=O)n2-n2c(C)nn(-c3ccc(OC)cc3)c2=O)cc1
K562 [7]
  IC50: 0.16 to 1.12 µg/mL (≈ 0.289 to 2.02 µM)
A549 [8]
  IC50: 0.16 to 1.12 µg/mL
MDA-MB-231 [9]
  IC50: 0.16 to 1.12 µg/mL
HeLa [10]
  IC50: 0.16 to 1.12 µg/mL (≈ 0.289 to 2.02 µM)

## Cc1nn(-c2ccccc2)c(=O)n1-n1c(-c2cc3ccccc3oc2=O)cs/c1=N\c1ccc(Cl)cc1
K562 [7]
  IC50: 0.16 to 1.12 µg/mL (≈ 0.303 to 2.12 µM)
A549 [8]
  IC50: 0.16 to 1.12 µg/mL
MDA-MB-231 [9]
  IC50: 0.16 to 1.12 µg/mL
HeLa [10]
  IC50: 0.16 to 1.12 µg/mL (≈ 0.303 to 2.12 µM)

## COc1cccc(-c2cc(-c3cc4ccccc4oc3=O)nc(Cc3ccc(F)cc3)n2)c1
MDA-MB-231 [5]; Homo sapiens, MDA-MB-231, 24 h
  IC50: 2150 to 28600 nM
A549 [6]
  IC50: 2150 to 28600 nM

## Cc1cc(=O)oc2cc(OCc3cn(CCCCCCCOc4ccc5ccc(=O)oc5c4)nn3)ccc12
HepG2
  IC50: 0.383 to 13.6 µM
769-P
  IC50: 0.383 to 13.6 µM
MDA-MB-231 [9]
  IC50: 0.383 to 13.6 µM

## CC(=O)O[C@H]1C(=O)[C@@]2(C)[C@H]([C@H](OC(=O)c3ccccc3)[C@]3(O)C[C@H](OC(=O)[C@H](O)[C@@H](NC(=O)c4ccccc4)c4ccccc4)C(C)=C1C3(C)C)[C@]1(OC(C)=O)CO[C@@H]1C[C@@H]2O [PACLITAXEL]
HeLa [1]
  IC50: 3.3 to 14 nM
A549 [8]
  IC50: 350 nM
MCF7 [2]
  IC50: 3.3 to 14 nM
A549 [3]
  IC50: 3.3 to 14 nM
K562 [4]
  IC50: 3.3 to 14 nM

## Cc1ccc(-n2nc(C)n(-n3c(-c4cc5ccccc5oc4=O)cs/c3=N\c3ccccc3)c2=O)cc1
K562 [7]
  IC50: 0.16 to 1.12 µg/mL (≈ 0.315 to 2.21 µM)
A549 [8]
  IC50: 0.16 to 1.12 µg/mL
MDA-MB-231 [9]
  IC50: 0.16 to 1.12 µg/mL
HeLa [10]
  IC50: 0.16 to 1.12 µg/mL (≈ 0.315 to 2.21 µM)

## O=Cc1c(-c2cc3cc(Br)ccc3oc2=O)[nH]c2ccccc12
MCF7 [11]
  IC50: 5.5 to 100 µM

## CCc1ccccc1NC(=O)c1ccc(-n2cc(COc3cc(=O)oc4ccccc34)nn2)cc1
MDA-MB-231 [5]; mda-mb-231
  IC50: 30 to 91600 nM

## COc1ccccc1NC(=O)Nc1ccc(Cc2c(C)c3cc(C(C)(C)C)c(O)cc3oc2=O)cn1
HeLa [1]
  IC50: 1660 to 19400 nM
MCF7 [2]
  IC50: 1660 to 19400 nM
A549 [3]
  IC50: 1660 to 19400 nM
K562 [4]
  IC50: 1660 to 19400 nM
